Measurements reported in US10092574B2, “Inhibitors of polynucleotide repeat-associated RNA foci and uses thereof” (VALORISATION-RECHERCHE, LIMITED PARTNERSHIP, priority 2013, dated 2018).

How the values were obtained:
Type in all cases: cell-based, human
MBNL2 exon 7 = assay: RT-PCR alternative splicing assay, MBNL2 exon 7; conditions: DM1 myoblasts
Procedure: (§1) Human myoblasts were obtained from the Myosix institute associated with the Association Frangaise contre les Myopathies (AFM). Five primary myoblast lines were obtained as controls, and one line from a DM1 patient with a 3.8 Kb CTG triplet amplification corresponding to approximately 1250 CTG repeats. The human myoblasts are cultivated in HAM-F10 media (SIGMA N6635) with 15% FBS, 1% chick embryo extract, and 390 ng/ml of dexamethasone. One day before adding compounds, 2×10^5 cells were plated in 100 mm plates (for CUGBP1 western blot or RT-PCR alternative splicing assay) or 2×10^4 cells/well are seeded in 12-well plates containing 12 mm round glass coverslips (for FISH to detect RNA foci). […]
(§2) For Western blots, CUGBP1 was detected with the 3B1-3D11 monoclonal antibody (mAb) (SIGMA C5112) and GAPDH was detected with the 6C5 mAb (Millipore MAB374). The enhanced chemiluminescence signal (ECL) was acquired and quantified with the ChemiDoc™ MP imaging system (Bio-Rad). […] The alternative splicing of the hnRNPA2/B1 transcript was detected with the primers 5′-[…]-3′ (SEQ ID NO:7) and 5′-[…]-3′ (SEQ ID NO:8). PCR was performed with Taq using standard conditions but the number of amplification cycles was optimized to be in the quantitative range for each gene. […]

CUGBP1 = assay: Western blot of CUGBP1 protein levels in myoblasts; conditions: 20 μM, 7 days (FIG. 7); for reduction of CUGBP1 levels: DM1 myoblasts
Procedure: Human myoblasts were obtained from the Myosix institute associated with the Association Frangaise contre les Myopathies (AFM). Five primary myoblast lines were obtained as controls, and one line from a DM1 patient with a 3.8 Kb CTG triplet amplification corresponding to approximately 1250 CTG repeats. The human myoblasts are cultivated in HAM-F10 media (SIGMA N6635) with 15% FBS, 1% chick embryo extract, and 390 ng/ml of dexamethasone. One day before adding compounds, 2×10^5 cells were plated in 100 mm plates (for CUGBP1 western blot or RT-PCR alternative splicing assay) or 2×10^4 cells/well are seeded in 12-well plates containing 12 mm round glass coverslips (for FISH to detect RNA foci). One day after plating, media is replaced with fresh media containing the compounds at the desired concentration in this manner: the media is put in a screw-cap tube and heated at 37° C. The 20 mM compound stock in 100% DMSO is pipetted directly into the media and the tube is mixed well by inversion and gentle vortexing, and immediately overlayed on the cells. Pure DMSO is used for the control cells. Final concentrations on myoblasts are never higher than 0.5%. This procedure is repeated twice during the seven days of treatment, the media is thus replaced with fresh media containing compound every 2-3 days. Cells are collected or fixed for FISH after one week.
For Western blots, CUGBP1 was detected with the 3B1-3D11 monoclonal antibody (mAb) (SIGMA C5112) and GAPDH was detected with the 6C5 mAb (Millipore MAB374). The enhanced chemiluminescence signal (ECL) was acquired and quantified with the ChemiDoc™ MP imaging system (Bio-Rad). For alternative splicing assays, total RNA was collected with Trizol™ (Invitrogen), and 1 μg was used for reverse transcription with random primers with the RevertAid™ H Minus M-MuL RT (Fermentas) according to manufacturer's instructions. For MBNL2, PCR amplification was performed with primers 5′-[…]-3′ (SEQ ID NO:1) and 5′-[…]-3′ (SEQ ID NO:2). SERCA1 was amplified with primers 5′-[…]-3′ (SEQ ID NO:3) and 5′-[…]-3′ (SEQ ID NO:4). For TNNT2 (cardiac Troponin T), PCR was carried out with primers 5′-[…]-3′ (SEQ ID NO:5) and 5′-[…]-3′ (SEQ ID NO:6). The alternative splicing of the hnRNPA2/B1 transcript was detected with the primers 5′-[…]-3′ (SEQ ID NO:7) and 5′-[…]-3′ (SEQ ID NO:8). PCR was performed with Taq using standard conditions but the number of amplification cycles was optimized to be in the quantitative range for each gene. The products of PCR amplification were resolved on 3.5% agarose gels containing Gelred™ (Biotium) and images were acquired and quantified with the ChemiDoc™ MP imaging system (Bio-Rad). […]

SERCA1 exon 22 = assay: RT-PCR alternative splicing assay, SERCA1 exon 22; conditions: DM1 myoblasts, 20 μM, 7 days; WT 59%, DM1 less than 2% (FIG. 8B)
Procedure: as §1, §2

MBNL1 mRNA exon 7 = assay: RT-PCR alternative splicing assay, MBNL1 exon 7; conditions: DM1 myoblasts, 5 to 60 μM, 7 days (FIG. 12B)

SMILES | inclusion of MBNL2 exon 7 (MBNL2 exon 7; 20 μM, 7 days, from 40% (FIG. 8D)) | reduction of CUGBP1 levels (CUGBP1) | change of CUGBP1 levels in WT cells (CUGBP1; WT myoblasts) | inclusion of SERCA1 exon 22, of total transcripts (SERCA1 exon 22) | dose-response effect on splicing of MBNL2 mRNA (MBNL2 exon 7; 5 to 60 μM, 7 days (FIG. 12A)) | dose-response effect on splicing of MBNL1 mRNA (MBNL1 mRNA exon 7)
CCCN(CCC)S(=O)(=O)c1ccc(NS(=O)(=O)Cc2ccccc2)cc1 [Compound 15] | 25% | 85% | does not change | 17% |  | 
CCCc1c(C(=O)N(Cc2ccccc2)Cc2cccs2)cnn1-c1ccccc1 [Compound 32] |  | 30% |  |  | clear dose-response effect | clear dose-response effect
